# Laboratory results published in article PMC12392461, “Beyond Estrogenicity: A Comparative Assessment of Bisphenol A and Its Alternatives in In Vitro Assays Questions Safety of Replacements” (Environmental Science & Technology, 2025).
# Like-named read-outs stand apart in the source and are kept apart here.
# Experiments:
# Estrogen Receptor ERα = molecular target: T1, Estrogen Receptor ERα (Homo sapiens, UniProt P03372); experiment: cell-based; settings: for EC10, linear / logEC10 / EC10, linear transformed: Bioassay ERα; for EC10, linear: linear model fit; for logEC10: log-logistic model fit; for ERα activation: at noncytotoxic concentrations; for EC10, ERα (M): 10% of maximum effect of E2; for SR-ScoreERα: SR-Score, sigma k=1, x=5; for EC10 / REPBPA / Efficacy %: This Study; for EC10: ERα; for REPBPA: relative estrogenic potency vs BPA; for EC10, ERα: effect; for log(1/EC10) ERα: input of the ToxPi score, values up to 1.00; for Specificity ratio (SRbaseline) SRERα: against baseline cytotoxicity; for Relative effect potency REPERα: relative to BPA
# T1 sequence (P03372 311-547 limits assumed): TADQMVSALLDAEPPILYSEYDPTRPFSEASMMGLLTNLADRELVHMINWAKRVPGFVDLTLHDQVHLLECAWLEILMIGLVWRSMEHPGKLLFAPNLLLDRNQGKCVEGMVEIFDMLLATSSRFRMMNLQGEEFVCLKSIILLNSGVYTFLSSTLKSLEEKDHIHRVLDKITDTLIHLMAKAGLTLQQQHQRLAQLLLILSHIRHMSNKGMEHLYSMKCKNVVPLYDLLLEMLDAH
# Method in brief: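 ERα-UAS-bla GripTite and PPARγ-UAS-bla β-lactamase reporter cells were seeded and held 24 h at 37 °C, 5% CO₂ before dosing. EC10 values used only concentrations below the IC10 from IncuCyte confluency. Emax% is the log-logistic curve maximum relative to the reference chemical's maximum.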
# [1] = 15 min
# Experimental: (§1) The mixtures were adjusted to a final volume of 100 μL with acetonitrile (ACN). The reaction mix was incubated for 15 min at 30 °C and 1000 rpm on a Bioshake iQ orbital shaker from QInstruments (Jena, Germany). Additionally, a mixture without test compounds was prepared as a control. Subsequently, 10 μL of the reaction mixture was transferred into a conical dosing vial and evaporated under a nitrogen flow.
# (§2) For chemical analysis, 10 μL of the reaction mixture was concentrated under vacuum (CentriVap, Labconco, Kansas City, MO, USA), diluted to 1 mg/L in ACN or ethyl acetate. The chemical analysis of the reaction mixtures was performed using liquid chromatography (LC) and gas chromatography (GC) coupled with various detection techniques, preferably Multiple Reaction Monitoring (MRM). Data acquisition and processing were carried out using the software MassHunter. Quantification was based on external calibrations.
# (§3) The Cparent-Ratio quantifies the extent of oxidation of the parent compound after the abiotic CYP reaction. It was calculated as the ratio of the parent compound concentration after oxidation (C parent, after oxidation) to its concentration before oxidation (C parent, before oxidation) as shown in eq . […] 8 Cparent‐Ratio=Cparent,after oxidation/Cparent,before oxidation
# ERα = settings: ref Pelch et al 2019; cited from earlier work
# [2] = Abiotic CYP (aCYP) oxidation, remaining parent compound (Cparent-Ratio); settings: for Cparent-Ratio Rep.1 %: Table S9, replicate 1; for Cparent-Ratio Rep.2 %: Table S9, replicate 2
# Experimental: as §1, §2, §3
# [3] = Octanol-water partition constant (log Kow) measurement, Sirius T3 potentiometric log P; format: physicochemical; settings: experimental, this study
# Experimental: Physicochemical properties provide input parameters for the baseline toxicity model. Acidity constants (pK a) and octanol–water partition constants of the neutral species (K ow) were measured with a Sirius T instrument from Pion Inc. (Sussex, UK) (Text S1.2 and Table S1). A detailed description of the pK a and K ow measurements can be found in literature. , […]
# S1.2: pKa and log Kow measurements […]
# titrator (Pion Inc., Sussex, U.K.). […]
# UV absorbance. For log Kow measurement, approximately 1 mg of test chemical was added to a sample vial and the measurement was done automatically via the potentiometric log P protocol. Briefly, each compound is titrated thrice in an immiscible biphasic system of octanol and phosphate buffer solution and pH is continuously recorded. The shift in p Ka -values was used to estimate the log Kow values.2, 3 Data processing was performed with Sirius T3 Refine software (version 2.0.0.0.), and the final p Ka and log Kow values were calculated as the average of three titrations. To ensure reproducibility, measurements were conducted on at least two
# Tox21 assays [4] = settings: cited from earlier work
# Tox21 assays [5] = experiment: Re-evaluated Tox21 data (Adamovsky et al.), REPBPA and SRbaseline; settings: for SRbaseline: Specificity Ratio;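 on all read-outs here: published Tox21 results reanalysed with a revised model predicting baseline toxicity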
# Text: We also reanalyzed the Tox21 data of Adamovsky et al. with the updated baseline toxicity prediction model (Table S2).
# [6] = Table S9, loss of parent after aCYP oxidation
# [7] = Table S9, mean of two replicate experiments
# [8] = Table S9, replicate 1, as fraction
# [9] = Table S9, replicate 2, as fraction
# [10] = Table S11, measured simultaneously with bioassay
# [11] = TOX21_PPARg_BLA_antagonist_ratio, re-evaluated Tox21 data, ref Adamovsky et al 2024
# [12] = Tox21Luc, ref Adamovsky et al. 2024
# [13] = TOX21_PPARg_BLA_antagonist_ratio
# [14] = ATG_PPARg_TRANS_up, re-evaluated Tox21 data, ref Adamovsky et al 2024
# [15] = ATG_hPPARg_XSP2_up, re-evaluated Tox21 data, ref Adamovsky et al 2024
smiles,measurement,setting,value
"CC(C)(c1ccc(OCC2CO2)cc1)c1ccc(OCC2CO2)cc1 (stereo not drawn) [BADGE, Bisphenol A diglycidyl ether]","EC10, linear",Estrogen Receptor ERα; dosing range all,no effect
same,logEC10,Estrogen Receptor ERα; dosing range all,no effect
same,ERα activation,Estrogen Receptor ERα,did not activate ERα at noncytotoxic concentrations
same,% Loss,[1],-5%
same,Cparent-Ratio Mean,[1],1.05
same,Cparent-Ratio Rep.1,[1],1.07
same,Cparent-Ratio Rep.1 %,[1],107.02%
same,Cparent-Ratio Rep.2,[1],1.03
same,Cparent-Ratio Rep.2 %,[1],103.48%
"CC(C)CC(C)(c1ccc(O)cc1)c1ccc(O)cc1 [BP-MIBK, 4,4'-(1,3-Dimethylbutylidene)diphenol]",% Loss,[1],10%
"CC(C)(c1ccc(O)c(-c2ccccc2)c1)c1ccc(O)c(-c2ccccc2)c1 [BPPH, 2,2-Bis(2-hydroxy-5-biphenylyl)propane]",Efficacy %,ERα,27.00%
same,"EC10, linear",Estrogen Receptor ERα; dosing range all,no effect
same,logEC10,Estrogen Receptor ERα; dosing range all,no effect
same,ERα activation,Estrogen Receptor ERα,did not activate ERα at noncytotoxic concentrations
same,Emax,"Estrogen Receptor ERα; read-out: Emax%ERα, maximum efficacy relative to E2",0%
same,% Loss,[2]; [6],22%
same,Cparent-Ratio Mean,[2]; [7],0.78
same,Cparent-Ratio Rep.1 %,[2],89.82%
same,Cparent-Ratio Rep.1,[2]; [8],0.90
same,Cparent-Ratio Rep.2 %,[2],66.60%
same,Cparent-Ratio Rep.2,[2]; [9],0.67
same,% Loss,[2]; Table S11,22%
same,Cparent-Ratio Mean,[2]; [10],0.78
same,Cparent-Ratio Rep.1,[2]; [10],0.78
same,Cparent-Ratio Rep.2,[2]; [10],0.78
"Oc1ccc(Sc2ccc(O)cc2)cc1 [BPT, 4,4'-Thiodiphenol]",log Kow used,[3],3.29
same,"EC10, ERα (M)",Estrogen Receptor ERα,7.27 × 10^–7 M
same,"EC10, linear transformed","Estrogen Receptor ERα; dosing range all, in M",2.87E-07
same,"EC10, linear","Estrogen Receptor ERα; dosing range all, in M",7.27E-07
same,logEC10,Estrogen Receptor ERα; dosing range all,-6.54
same,SR-ScoreERα,Estrogen Receptor ERα,1.00
same,EC10,Estrogen Receptor ERα; in M,7.27E-07
same,REPBPA,Estrogen Receptor ERα,5.09E-01
same,"EC10, ERα",Estrogen Receptor ERα,0.727 µM
same,log(1/EC10) ERα,Estrogen Receptor ERα,0.78
same,% Loss,[2]; [6],71%
same,% Loss,[2]; Table S11,87%
same,EC10,"Tox21 assays [4]; TOX21_AR_LUC_MDAKB2_Antagonist_0,5nM_R1881, re-evaluated Tox21 data, ref Adamovsky et al 2024",1.43e-06 M
same,EC10,Tox21 assays [4]; [11],2.66e-06 M
same,EC10,Tox21 assays [4]; [12],7.19E-08
same,REPBPA,"Tox21 assays [5]; TOX21_AR_LUC_MDAKB2_Antagonist_0,5nM_R1881, Relative Effect Potency",1.69
same,SRbaseline,"Tox21 assays [5]; TOX21_AR_LUC_MDAKB2_Antagonist_0,5nM_R1881",66.82
same,SRbaseline,Tox21 assays [5]; [13],35.93
same,REPBPA,Tox21 assays [5]; [12],8.32E-01
"Oc1ccc(C2(c3ccc(O)cc3)CCCCC2)cc1 [BPZ, 1,1'-Bis(4-hydroxyphenyl)cyclohexane]",log Kow used,[3],4.64
same,% Loss,[2]; [6],12%
same,EC10,"Tox21 assays [4]; TOX21_CAR_Antagonist, re-evaluated Tox21 data, ref Adamovsky et al 2024",4.58e-07 M
same,EC10,Tox21 assays [4]; [11],1.84e-06 M
same,EC10,Tox21 assays [4]; [12],2.65E-08
same,REPBPA,"Tox21 assays [5]; TOX21_CAR_Antagonist, Relative Effect Potency",1.19
same,SRbaseline,Tox21 assays [5]; TOX21_CAR_Antagonist,59.87
same,SRbaseline,Tox21 assays [5]; [13],14.87
same,REPBPA,Tox21 assays [5]; [12],2.90E+00
"COC(=O)C(c1ccc(O)cc1)c1ccc(O)cc1 [Bz, Methyl bis(4-hydroxyphenyl)acetate]",log Kow used,[3],2.06
same,"EC10, ERα (M)",Estrogen Receptor ERα,1.06 × 10^–6 M
same,"EC10, linear transformed","Estrogen Receptor ERα; dosing range high, in M",1.23E-08
same,"EC10, linear","Estrogen Receptor ERα; dosing range high, in M",7.84E-07
same,logEC10,Estrogen Receptor ERα; dosing range high,-6.83
same,"EC10, linear transformed","Estrogen Receptor ERα; dosing range low, in M",9.90E-07
same,"EC10, linear","Estrogen Receptor ERα; dosing range low, in M",1.06E-06
same,logEC10,Estrogen Receptor ERα; dosing range low,-6.00
same,SRcytotoxicity (ERα),Estrogen Receptor ERα; IC10/EC10,957
same,SR-ScoreERα,Estrogen Receptor ERα,1.00
same,Efficacy %,Estrogen Receptor ERα,32.40%
same,EC10,Estrogen Receptor ERα; in M,1.06E-06
same,REPBPA,Estrogen Receptor ERα,3.49E-01
same,Specificity ratio (SRbaseline) SRERα,Estrogen Receptor ERα,245.73
same,Specificity ratio (SRcytotoxicity) SRERα,Estrogen Receptor ERα; against experimental cytotoxicity,956.87
same,"EC10, ERα",Estrogen Receptor ERα,1.06 µM
same,log(1/EC10) ERα,Estrogen Receptor ERα,0.76
same,Emax,Estrogen Receptor ERα; read-out: Emax%ERα,32%
same,Relative effect potency REPERα,Estrogen Receptor ERα,0.35
same,% Loss,[2]; [6],-7%
same,Cparent-Ratio Mean,[2]; [7],1.07
same,Cparent-Ratio Rep.1 %,[2],113.92%
same,Cparent-Ratio Rep.1,[2]; [8],1.14
same,Cparent-Ratio Rep.2 %,[2],100.34%
same,Cparent-Ratio Rep.2,[2]; [9],1.00
"CC(C)(c1cc(Br)c(O)c(Br)c1)c1cc(Br)c(O)c(Br)c1 [TBBPA, 3,3',5,5'-Tetrabromobisphenol A]",log Kow used,[3],5.91
same,% Loss,[2]; [6],8%
same,EC10,Tox21 assays [4]; [14],4.64e-07 M
same,EC10,"Tox21 assays [4]; ATG_hPPARg_XSP1_up, re-evaluated Tox21 data, ref Adamovsky et al 2024",5.02e-07 M
same,EC10,Tox21 assays [4]; [15],2e-07 M
same,EC10,Tox21 assays [4]; [11],6.2e-08 M
"CC(C)(c1cc(Cl)c(O)c(Cl)c1)c1cc(Cl)c(O)c(Cl)c1 [TCBPA, 2,2',6,6'-Tetrachlorobisphenol A]",EC10,Tox21 assays [4]; [14],2.35e-07 M
same,EC10,Tox21 assays [4]; [15],4e-07 M
same,EC10,Tox21 assays [4]; [11],4.02e-07 M
same,REPBPA,"Tox21 assays [5]; ATG_PPARg_TRANS_up, Relative Effect Potency",6.78
same,SRbaseline,Tox21 assays [5]; ATG_PPARg_TRANS_up,37.70
same,REPBPA,"Tox21 assays [5]; ATG_hPPARg_XSP2_up, Relative Effect Potency",3.23
same,SRbaseline,Tox21 assays [5]; ATG_hPPARg_XSP2_up,22.19
same,SRbaseline,Tox21 assays [5]; [13],22.07
"CC1(C)[C@H](O)C(C)(C)[C@H]1O [t-TMCD, trans-2,2,4,4-Tetramethyl-1,3-cyclobutanediol]","EC10, ERα (M)",Estrogen Receptor ERα,3.03 × 10^–3 M
same,"REPBPA,ERα (relative effect potency in relation to BPA)","Estrogen Receptor ERα; EC10,BPA/EC10,BPx",1.2 × 10^–4
same,SR-ScoreERα,Estrogen Receptor ERα,0.00922
same,Efficacy %,Estrogen Receptor ERα,<20%
same,EC10,Estrogen Receptor ERα; in M,3.03E-03
same,REPBPA,Estrogen Receptor ERα,1.22E-04
same,Specificity ratio (SRbaseline) SRERα,Estrogen Receptor ERα,0.32
same,"EC10, ERα",Estrogen Receptor ERα,3030 µM
same,log(1/EC10) ERα,Estrogen Receptor ERα,0.32
same,Relative effect potency REPERα,Estrogen Receptor ERα,0.000122
same,% Loss,[2]; [6],0.48%
same,Cparent-Ratio Mean,[2]; [7],1.00
same,Cparent-Ratio Rep.1 %,[2],90.48%
same,Cparent-Ratio Rep.1,[2]; [8],0.90
same,Cparent-Ratio Rep.2 %,[2],108.56%
same,Cparent-Ratio Rep.2,[2]; [9],1.09
